Measurements taken from US20070208052A1, “Aryloxy and arylalkyleneoxy substituted thiazoloquinolines and thiazolonaphthyridines” (priority 2004, published 2007).

| melting point | Structure (SMILES) |
| --- | --- |
| 145 to 148 °C | CCCc1nc2c(N)nc3cc(OCCc4ccc(F)cc4)ccc3c2s1 [Example 3, 7-[2-(4-Fluorophenyl)ethoxy]-2-propylthiazolo[4,5-c]quinolin-4-amine] |
| 152 to 154 °C | CCCc1nc2c(N)nc3cc(OCCCn4cccc4)ccc3c2s1 [Example 34, 2-Propyl-7-[3-(pyrrol-1-yl)propoxy]thiazolo[4,5-c]quinolin-4-amine] |
| 175 to 178 °C | CCCc1nc2c(N)nc3cc(OCc4ccccc4)ccc3c2s1 [Example 1, 7-Benzyloxy-2-propylthiazolo[4,5-c]quinolin-4-amine] |
| 100 to 101 °C | CCc1nc2c(N)nc3cc(OCc4ccc(S(=O)(=O)NCCc5cc6ccccc6[nH]5)cc4)ccc3c2s1 [Example 37, 4-{[(4-Amino-2-ethylthiazolo[4,5-c]quinolin-7-yl)oxy]methyl}-N-[2-(1H-indol-2-yl)ethyl]benzenesulfonamide] |
| 142 to 145 °C | CCCc1nc2c(N)nc3cc(OCCOCc4ccccc4)ccc3c2s1 [Example 4, 7-[2-(Benzyloxy)ethoxy]-2-propylthiazolo[4,5-c]quinolin-4-amine] |
| 170 to 171 °C | CCCc1nc2c(N)nc3cc(OCc4ccoc4)ccc3c2s1 [Example 5, 7-(Furan-3-ylmethyloxy)-2-propylthiazolo[4,5-c]quinolin-4-amine] |
| 189 to 192 °C | CCCc1nc2c(N)nc3cc(OCc4ccc(F)cc4)ccc3c2s1 [Example 2, 7-(4-Fluorobenzyloxy)-2-propylthiazolo[4,5-c]quinolin-4-amine] |
| 186 to 187 °C | CCc1nc2c(N)nc3cc(OCc4cccc(CO)n4)ccc3c2s1 [Example 43] |
| 213 to 214 °C | CCc1nc2c(N)nc3cc(Oc4ccc(C(=O)OC)cn4)ccc3c2s1 [Example 44, Methyl 6-[(4-amino-2-ethylthiazolo[4,5-c]quinolin-7-yl)oxy]nicotinate] |
| 194 to 197 °C | CCc1nc2c(N)nc3cc(OCCCn4cc(CO)nn4)ccc3c2s1 [Example 40, (1-{[3-(4-Amino-2-ethylthiazolo[4,5-c]quinolin-7-yl)oxy]propyl}-1H-[1,2,3]triazol-4-yl)methanol] |
| 211 to 212 °C | CCc1nc2c(N)nc3cc(OCc4nc5ccccc5s4)ccc3c2s1 [Example 41, 7-[(1,3-Benzothiazol-2-yl)methoxy]-2-ethylthiazolo[4,5-c]quinolin-4-amine] |

More lines, now with the values behind:

| Structure (SMILES) | melting point |
| --- | --- |
| CCc1nc2c(N)nc3cc(OCc4cccc(Cl)n4)ccc3c2s1 [Example 38, 7-[(6-Chloropyridin-2-yl)methoxy]-2-ethylthiazolo[4,5-c]quinolin-4-amine] | 229 to 230 °C |
| CCCc1nc2c(N)nc3cc(OCCn4cccc4)ccc3c2s1 [Example 33, 2-Propyl-7-[2-(pyrrol-1-yl)ethoxy]thiazolo[4,5-c]quinolin-4-amine] | 158 to 160 °C |
| CCc1nc2c(N)nc3cc(OCCc4c[nH]c5ccccc45)ccc3c2s1 [Example 45, 2-ethyl-7-[2-(1H-indol-3-yl)ethoxy]thiazolo[4,5-c]quinolin-4-amine] | 218 to 220 °C |
| CCCc1nc2c(N)nc3cc(OCc4c(C)noc4C)ccc3c2s1 [Example 35, 7-[(3,5-Dimethylisoxazol-4-yl)methoxy]-2-propylthiazolo[4,5-c]quinolin-4-amine] | 178 to 180 °C |
| CCc1nc2c(N)nc3cc(OCCCc4cccnc4)ccc3c2s1 [Example 30, 2-Ethyl-7-[3-(pyridin-3-yl)propoxy]thiazolo[4,5-c]quinolin-4-amine] | 172 to 173 °C |
| CCCc1nc2c(N)nc3cc(OCc4cscn4)ccc3c2s1 [Example 31, 2-Propyl-7-[(thiazol-4-yl)methoxy]thiazolo[4,5-c]quinolin-4-amine] | 218 to 220 °C |
| CCc1nc2c(N)nc3cc(OCc4ccc(C(=O)OC)o4)ccc3c2s1 [Example 42, Methyl 5-{[(4-amino-2-ethylthiazolo[4,5-c]quinolin-7-yl)oxy]methyl}-2-furoate] | 184 to 186 °C |
| CCc1nc2c(N)nc3cc(OCc4ccc(C(F)(F)F)o4)ccc3c2s1 [Example 36, 2-Ethyl-7-{[5-(trifluoromethyl)furan-2-yl]methoxy} thiazolo[4,5-c]quinolin-4-amine] | 152 to 154 °C |
| CCc1nc2c(N)nc3cc(OCCc4c(C)n[nH]c4C)ccc3c2s1 [Example 39, 7-[2-(3,5-Dimethyl-1H-pyrazol-4-yl)ethoxy]-2-ethylthiazolo[4,5-c]quinolin-4-amine] | 195 to 197 °C |
| CCCc1nc2c(N)nc3cc(OCc4cccnc4)ccc3c2s1 [Example 32, 2-Propyl-7-[(pyridin-3-yl)methoxy]thiazolo[4,5-c]quinolin-4-amine] | 167 to 169 °C |
| CCc1nc2c(N)nc3cc(OCc4ccccc4)ccc3c2s1 [Example 29, 7-Benzyloxy-2-ethylthiazolo[4,5-c]quinolin-4-amine] | 208 to 209 °C |
